According to US7476670B2, “Purine derivatives, method for preparing, pharmaceutical compositions and novel use” (Aventis Pharma S.A., priority 2003, dated 2009):
pIC50: −log10 of the molar value.

Tests used:
FAK = FAK (Homo sapiens, UniProt Q05397); experiment: Assay for inhibition of FAK activity (autophosphorylation); format: biochemical; conditions: fluorescence polarization, ATP 1 μM; read-out: IC50s expressed as micromolar
Protocol: The inhibition of the kinase activity is determined by fluorescence polarization, the autophosphorylation of FAK is detected by adding an anti-phosphoprotein antibody coupled to a fluorescent label.
(§1) The assay is carried out in a final volume of 30 μl; all the reagents are prepared in a buffer: • 50 mM HEPES pH 7.5 • 0.03% triton X100 • 10 mM MgCl2 • 5% Glycerol • 1 mM DTT 10 μl of the 10-times concentrated inhibitor are added to 5 μl of enzyme (100 ng final concentration), and 5 μl of incubation buffer and 10 μl of ATP (1 μM final concentration) are added.

[1] = molecular target: Cyclin Dependent kinase 2 (CDK2) (Homo sapiens, UniProt P24941); experiment: Assay for inhibition of CDK2 activity; format: biochemical; conditions: [33P]ATP, read-out: percentage inhibition at 20 μM
Protocol: The inhibition of the kinase activity of Cyclin Dependent kinase 2 (CDK2) is determined by measuring the phosphorylation of its substrate peptide.
The assay is carried out in a final volume of 50 μl.
The incubation buffer as follows:
• 50 mM Hepes/NaOH pH 7.5 • 10 mM MgCl2 • 1 mM DTT 5 μl of the 10-times concentrated inhibitor are added to 25 μl of incubation buffer containing 0.8 U/μL final concentration of the enzyme; 10 μL of incubation buffer containing 0.0025 mg/ml of peptide substrate are then added and, finally, 10 μL of incubation buffer containing 2 mM ATP and radiolabeled ATP, [^33P]ATP (0.25 μCi), are added. The reaction is stopped after incubation for 10 minutes at 37° C. • Results obtained expressed as percentage inhibition at 20 μM • Example 2 97% • Example 27 97% • Example 30 99% 4) Assay for Inhibition of CDK1 Activity

JNK3 kinase = JNK3 kinase (Homo sapiens, UniProt P53779); experiment: Assay for inhibition of JNK3 activity; format: biochemical; conditions: fluorescence polarization, ATP 6 μM; read-out: IC50s expressed as micromolar
Chain of JNK3 kinase (P53779 whole entry): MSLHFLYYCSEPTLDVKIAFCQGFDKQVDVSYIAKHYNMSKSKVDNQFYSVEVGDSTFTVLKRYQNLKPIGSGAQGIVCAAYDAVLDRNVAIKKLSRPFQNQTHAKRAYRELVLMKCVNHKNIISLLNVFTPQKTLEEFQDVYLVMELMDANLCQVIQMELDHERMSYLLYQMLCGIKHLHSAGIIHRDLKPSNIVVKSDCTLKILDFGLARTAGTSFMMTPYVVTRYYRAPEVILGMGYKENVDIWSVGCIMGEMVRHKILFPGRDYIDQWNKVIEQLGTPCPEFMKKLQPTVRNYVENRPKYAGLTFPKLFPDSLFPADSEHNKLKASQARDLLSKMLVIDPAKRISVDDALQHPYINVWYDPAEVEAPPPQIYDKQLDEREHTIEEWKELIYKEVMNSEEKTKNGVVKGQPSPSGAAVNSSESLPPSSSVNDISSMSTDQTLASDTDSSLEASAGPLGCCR
Protocol: The inhibition of the kinase activity is determined by fluorescence polarization, the JNK3 kinase phosphorylates a peptide detected by adding an anti-phosphopeptide antibody coupled to a fluorescent label.
as §1, with “of enzyme (40 ng final” for “of enzyme (100 ng final”, “incubation buffer containing 100 ng of substrate and 10” for “incubation buffer and 10”, “of ATP (6 μM final” for “of ATP (1 μM final”

Aspergillus fumigatus = experiment: Minimum inhibitory concentration in liquid medium, micro method (NCCLS M27-A); format: cell-based; conditions: Aspergillus fumigatus; at least 80% inhibition of growth, read after 48-72 h at 37° C., RPMI 1640

Chain of FAK (Q05397 whole entry, species assumed): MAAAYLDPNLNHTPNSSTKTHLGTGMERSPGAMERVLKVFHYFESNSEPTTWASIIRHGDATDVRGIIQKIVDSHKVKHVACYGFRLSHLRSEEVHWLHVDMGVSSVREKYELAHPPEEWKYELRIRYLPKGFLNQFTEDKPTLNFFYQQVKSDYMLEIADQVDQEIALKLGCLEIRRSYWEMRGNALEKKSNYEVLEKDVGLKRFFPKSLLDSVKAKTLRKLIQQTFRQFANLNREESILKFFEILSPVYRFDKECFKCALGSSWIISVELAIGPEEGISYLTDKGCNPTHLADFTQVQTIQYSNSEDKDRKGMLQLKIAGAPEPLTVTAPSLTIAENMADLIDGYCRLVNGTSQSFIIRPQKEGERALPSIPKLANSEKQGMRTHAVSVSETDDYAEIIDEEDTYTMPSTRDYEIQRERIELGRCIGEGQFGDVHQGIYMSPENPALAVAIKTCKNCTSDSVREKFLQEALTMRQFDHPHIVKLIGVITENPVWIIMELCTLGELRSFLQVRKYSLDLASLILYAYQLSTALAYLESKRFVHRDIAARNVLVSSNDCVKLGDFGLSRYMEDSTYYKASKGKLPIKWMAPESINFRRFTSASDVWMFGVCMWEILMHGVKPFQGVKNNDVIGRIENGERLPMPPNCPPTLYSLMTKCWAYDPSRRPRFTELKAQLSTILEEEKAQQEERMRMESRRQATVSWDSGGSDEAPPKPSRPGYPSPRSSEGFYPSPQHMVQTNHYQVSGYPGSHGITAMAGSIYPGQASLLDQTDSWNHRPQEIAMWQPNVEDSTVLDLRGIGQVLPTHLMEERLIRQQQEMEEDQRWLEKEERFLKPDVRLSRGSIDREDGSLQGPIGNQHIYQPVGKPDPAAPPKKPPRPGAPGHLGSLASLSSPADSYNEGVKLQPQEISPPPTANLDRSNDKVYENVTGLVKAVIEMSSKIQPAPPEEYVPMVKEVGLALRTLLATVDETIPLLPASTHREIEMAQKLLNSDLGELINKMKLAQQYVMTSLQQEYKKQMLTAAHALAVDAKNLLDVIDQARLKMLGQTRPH

Compound	pIC50 (FAK)	inhibition at 20 µM [1] [%]	pIC50 (JNK3 kinase)	MIC (Aspergillus fumigatus) [µg/mL]
Cl.Cl.N[C@H]1CC[C@H](Nc2nc(N3CCc4cc([N+](=O)[O-])ccc43)c3nc[nH]c3n2)CC1 [Example 30, Trans-N-[6-(2,3-dihydro-5-nitro-1H-indol-1-yl)-9H-purin-2-yl]-1,4-cyclohexanediamine dihydrochloride]	6.00	99	–	–
Cl.N[C@H]1CC[C@H](Nc2nc(-n3cnc4cc(Cl)c(Cl)cc43)c3nc[nH]c3n2)CC1 [Example 8, Trans-N-[6-(5,6-dichloro-1H-benzimidazol-1-yl)-9H-purin-2-yl]-1,4-cyclohexanediamine hydrochloride]	5.70	–	6.08	32
